Laboratory results: patent publication US11628146B2, “Estrogen receptor ligand treatment for neurodegenerative diseases” (The Regents of the University of California, priority 2014, dated 2023)
“Also recorded” adds a separate entry of the source.

What was measured:
EAE in C57BL/6 mice [1] = assay: Standard EAE clinical score (0-5 scale), MOG 35-55 induced EAE, C57BL/6 mice; assay type: in vivo, mouse
From the text: (§1) Animals. C57BL/6 and NOD mice 8 weeks old were purchased from Jackson Laboratories (Bar Harbor, Me.). Animals were maintained under environmentally controlled conditions in a 12-hour light/dark cycle with access to food and water ad libitum. All procedures were done in accordance with the guidelines of the National Institutes of Health and the Chancellor's Animal Research Committee of the University of California, Los Angeles Office for the Protection of Research Subjects.
(§2) Reagents. AC-186 was dissolved in either Miglyol 812N liquid oil (Sasol North America) or sesame oil (Sigma Aldrich) as following concentration; 1.5 mg/mL for 3 mg/kg group, 5 mg/mL for 10 mg/kg group, and 15 mg/mL for 30 mg/kg group. Diarylpropionitrile (DPN, Tocris Biosciences) was dissolved in 10% molecular-grade ethanol and diluted with 90% of either Miglyol 812N liquid oil or sesame oil.
(§3) EAE and Treatments. Animals were injected subcutaneously with Myelin Oligodendrocyte Glycoprotein (MOG), amino acids 35-55 (200 μg/animal, American Peptides), emulsified in complete Freund's adjuvant (CFA) and supplemented with Mycobacterium tuberculosis H37ra (300 μg/animal, Difco Laboratories), over two sites drained by left inguinal and auxiliary lymph nodes in a total volume of 0.1 ml/mouse. One week later, a booster immunization was delivered over contra lateral lymph nodes. Pertussis toxin (500 ng/mouse) (List Biological Laboratories, Inc.) was injected intraperitoneally on days 0 and 2. Animals were monitored daily for EAE signs based on a standard EAE 0-5 scale scoring system: 0—healthy, 1—complete loss of tail tonicity, 2—loss of righting reflex, 3—partial paralysis, 4—complete paralysis of one or both hind limbs, and 5—moribund. Animals received 0.05 ml of either of 1.5, 5, 15 mg/mL AC-186, vehicle (sesame oil or Miglyol 812N liquid oil), or DPN (8 mg/kg/day) via subcutaneous injections every other day. Animals were treated with AC-186 or vehicle after EAE induction. Specifically, treatment was initiated at the first clear signs of clinical disease (EAE day 13-15), and continued to the endpoint of the experiment.

EAE in C57BL/6 mice [2] = conditions: DPN in Miglyol carrier; previous work; cited from earlier work
[3] = test system: spinal cords of C57BL/6 females with EAE; conditions: DPN; previous experiments; cited from earlier work
[4] = Dissolution of the compound in the oil vehicle; assay type: physicochemical; conditions: DPN; needed ethanol first
Experimental: as §2
Three doses of the AC-186 compound were tested in C57BL6 female mice: low (3 mg/kg, every other day), medium (10 mg/kg, every other day), and high (30 mg/kg, every other day), each injected subcutaneously in a sesame oil vehicle. The ERβ ligand diarylpropionitrile (DPN) was tested as a positive control because DPN can partially ameliorate EAE and because the treatment effects in EAE experiments can vary based on the level of disease severity within an experiment. Direct comparisons between treatments were only made between treatment groups within a single EAE experiment and not between treatment groups of different EAE experiments. […] The difference in improvement between the 30 mg/kg AC-186 group and all other groups increased with time.

EAE in NOD mice = assay: Standard EAE clinical score (0-5 scale), MOG-induced EAE, NOD mice; assay type: in vivo, mouse; conditions: NOD females; DPN in miglyol vehicle; vs vehicle
From the text: as §1, §2, §3

EAE in C57BL/6 mice [5] = assay: Rotarod testing of motor coordination and balance in EAE, C57BL/6 mice; assay type: in vivo, mouse; conditions: DPN in 10% ethanol/miglyol vs miglyol vehicle (FIG. 4; strain not given)
Experimental: Rotarod Testing. Motor behavior was tested up to two times per week for each mouse using a rotarod apparatus (Med Associates Inc., St. Albans, Vt.). Briefly, animals were placed on a rotating horizontal cylinder for a maximum of 200 seconds. The amount of time the mouse remained walking on the cylinder, without falling, was recorded. Each mouse was tested on a speed of 3-30 rpm and given three trials for any given day. The three trials were averaged to report a single value for an individual mouse, and then averages were calculated for all animals within a given treatment group. The first two trial days prior to immunization (day 0), served as practice trials.

[6] = test system: healthy female C57BL/6 mice (no EAE induced); assay: Morris water maze (spatial memory) in ovariectomized mice; assay type: in vivo, mouse; conditions: for Morris water maze learning (time in target quadrant): ovariectomized, estriol-treated mice (OVX-Estriol) vs OVX-Placebo
Experimental: FIG. 25. Peripheral estrogens improve performance on the Morris water maze via ERβ expressed on neurons. Healthy female C57BL/6 (with no EAE induced) were tested for cognitive performance (spatial memory) using the Morris water maze, whereby mice learn to spend more time in a target quadrant (TQ) as compared to three other quadrants (OQ). […] (Bottom graph) To determine (a) whether ER beta is required for proper learning and, more specifically, (b) whether ER beta expression in neurons is required for learning, mice were generated that had ER beta conditionally knocked out using CreLox technology, with Cre driving the knock out in neurons via the neuron-specific enolase (NSE) promoter. […] (***p≤0.001, ANOVA-Sidak's posttest). […] The dashed line on the graphs indicates the time expected to be spent in a quadrant by random chance in the absence of learning (25%).

Question: Which results are given for `N#CC(Cc1ccc(O)cc1)c1ccc(O)cc1` (centres unmarked) [DPN, Diarylpropionitrile, reference compound]?
Answer: EAE score (EAE in C57BL/6 mice [1]; DPN in 10% ethanol/miglyol vs miglyol vehicle (FIG. 4; strain not given)): protects against EAE better; also recorded: better EAE scores; EAE score (EAE in C57BL/6 mice [1]; female C57BL/6, DPN in 10% ethanol in sesame oil): not effective; EAE amelioration (EAE in C57BL/6 mice [2]): ameliorated EAE; CD45 staining in the CNS [3]: no significant effect on CD45 staining; also recorded: no effect on CD45 or Iba-1 globoid cell staining; Iba-1 globoid cell staining [3]: no effect on CD45 or Iba-1 globoid cell staining; Dissolution in sesame oil [4]: difficult to dissolve in sesame oil; EAE score (EAE in NOD mice): significantly ameliorated EAE; also recorded: better EAE scores; Rotarod times (EAE in C57BL/6 mice [5]): better performance with the rotarod test

Question: What does the source list for `C[C@]12CC[C@@H]3c4ccc(O)cc4CC[C@H]3[C@@H]1C[C@@H](O)[C@@H]2O` [estriol]?
Answer: Morris water maze learning (% duration in target quadrant) ([6]; OVX-Estriol NSE-Cre:ERβ fl/fl mice (neuronal ER beta knockout), listed as Estriol): estrogen-mediated improvement is lost; Morris water maze learning (time in target quadrant) [6]: ability to learn may be restored; Morris water maze learning (time in target quadrant) ([6]; listed as Estriol): improves performance
